# “Also recorded” adds a separate entry of the source.
# System: IL-12
# Assay: IL-12 inhibitory assay in IFNγ-primed, LPS-stimulated human PBMC (ELISA)
# Assay type: cell-based
# Settings: human PBMC primed with IFNγ, supernatants 20 h later, FIG. 1
# Procedure: This invention is based in part on the unexpected discovery that specific kavalactones inhibit production of IL-12, whose overproduction is implicated in a number of diseases and disease symptoms. The IL-12 inhibitory activity of six major kavalactones (e.g., desmethoxyyangonin, dihydrokawain, dihydromethysticin, kawain, methysticin, and yangonin) was measured using a cellular assay for determination of IL-12 cytokine inhibition. […] Thus, compositions containing one of the three active kavalactones, kawain, dihydrokawain, dihydromethysticin, or a combination thereof, are useful for treating disease or disease symptoms related to IL-12 overproduction.
# Referring back to FIG. 1, six kavalactones were tested in an IL-12 inhibitory assay as follows: Lipopolysaccharide (LPS, Serratia marscencens) was obtained from Sigma (St. Louis, Mo.). Human recombinant IFNg was purchased from Boehringer Mannheim. (Mannheim, Germany). Human peripheral blood mononuclear cells were isolated by centrifugation using Ficall-Paque (Pharmacia Biotech, Uppsala, Sweden) and prepared in RPMI medium supplemented with 10% FCS and antibiotics in a 96-well plate with 1×10^6 cells/well. Human PBMC were primed with IFNγ (30 U/mL) for 16 h and then stimulated with […] of LPS in the presence of different concentrations of test compound. Cell-free supernatants were taken 20 h later for measurement of cytokines. Cell viability was assessed using the bioreduction of MTS [3-(4,5-dimethylthiazol-2-yl)-5-(3-carboxymethoxyphenyl)-2-(4-sulfophenyl)-2H-tetrazolium] (Promega, Madison, Wis.). Cell survival was estimated as the ratio of the absorbance in compound-treated groups versus compound-free control. Human IL-12 was assayed using ELISA kits (Endogen, Cambridge, Mass.), essentially according to the manufacturer's instructions. IL-12 inhibition can also be measured by other methods (e.g., in vivo, in vitro, animal models) of assaying for enzyme inhibition activity.
row,SMILES,IL-12 inhibitory activity
1,COC1=CC(=O)O[C@@H](CCc2ccccc2)C1 [dihydrokawain],much higher IL-12 inhibitory activity relative to the other kavalactones; also recorded: exhibit IL-12 inhibitory activity
2,COC1=CC(=O)O[C@@H](CCc2ccc3c(c2)OCO3)C1 [dihydromethysticin],much higher IL-12 inhibitory activity relative to the other kavalactones; also recorded: exhibit IL-12 inhibitory activity
3,COC1=CC(=O)O[C@@H](/C=C/c2ccccc2)C1 [kawain],much higher IL-12 inhibitory activity relative to the other kavalactones; also recorded: exhibit IL-12 inhibitory activity

# Source: patent US20030181515A1, “Methods of using kavalactone compositions” (Kava Pharmaceuticals, Inc., a Delaware corporation, priority 2001, published 2003)
